Experimental data published in US20240197896A1, “SYNTHETIC PEPTIDE SHUTTLE AGENT BIOCONJUGATES FOR INTRACELLULAR CARGO DELIVERY” (FELDAN BIO INC., priority 2021, published 2024).
Read-outs that look alike come from different tables or passages of the source. Ends that are not written are not given here.

How the values were obtained:
HeLa cells [1] = test: In vitro transduction of DRI-NLS^647 cargo in HeLa cells (flow cytometry and fluorescence microscopy); type: cell-based, Human; settings: used at 10 μM; cargo 10 μM
Description: (§1) HeLa cells were plated (20 000 cells/well) in a 96 well-dish one day prior to transduction. Each delivery mix comprising a PEGylated shuttle agent (monomer or multimer) or a non-PEGylated shuttle agent at the indicated concentration(s) and 10 μM of a fluorescent cargo (e.g., GFP-NLS or DRI-NLS^647) was prepared in 50 μL with RPMI 1640 media completed with 10% human serum. Cells were washed once with PBS 1×, then incubated for 5 minutes with the prepared shuttle/cargo mix, PEGylated shuttle agent/cargo mix, and/or with the cargo alone as a negative control. After the incubation, 100 μL of DMEM containing 10% FBS was added to the mix and removed. […] Cells were then analyzed after a 1-hour incubation by fluorescence microscopy (Revolve, Echo: San Diego, CA, USA) and flow cytometry (Cytoflex™, Beckman Coulter: Indianapolis, IN, USA).
(§2) The signal intensity emitted by the fluorescent cargo and the percentage of cargo delivered cells was quantified by flow cytometry. Untreated cells were used to establish a baseline to quantify the increase in fluorescence that results from a successful internalization of the cargo in the presence of the shuttle agent in the treated cells. The percentage of cells with a fluorescence signal greater than the maximum fluorescence of untreated cells, “mean %” or “Pos cells (%)”, was used to identify positive fluorescent cells for determining transduction efficiency. […]

HeLa cells [2] = test: In vitro transduction of GFP-NLS cargo in HeLa cells (flow cytometry and fluorescence microscopy); type: cell-based; settings: used at 10 μM; 10% human serum
Description: as §1, §2

[3] = Cell viability / cytotoxicity in HeLa transduction assays (flow cytometry FSC/SSC); type: cell-based; settings: human, HeLa cells
Description: HeLa cells were plated (20 000 cells/well) in a 96 well-dish one day prior to transduction. Each delivery mix comprising a PEGylated shuttle agent (monomer or multimer) or a non-PEGylated shuttle agent at the indicated concentration(s) and 10 μM of a fluorescent cargo (e.g., GFP-NLS or DRI-NLS^647) was prepared in 50 μL with RPMI 1640 media completed with 10% human serum. Cells were washed once with PBS 1×, then incubated for 5 minutes with the prepared shuttle/cargo mix, PEGylated shuttle agent/cargo mix, and/or with the cargo alone as a negative control. After the incubation, 100 μL of DMEM containing 10% FBS was added to the mix and removed. Cells were washed once with PBS 1× and incubated in DMEM containing 10% FBS. Cells were then analyzed after a 1-hour incubation by fluorescence microscopy (Revolve, Echo: San Diego, CA, USA) and flow cytometry (Cytoflex™, Beckman Coulter: Indianapolis, IN, USA).
The signal intensity emitted by the fluorescent cargo and the percentage of cargo delivered cells was quantified by flow cytometry. Untreated cells were used to establish a baseline to quantify the increase in fluorescence that results from a successful internalization of the cargo in the presence of the shuttle agent in the treated cells. The percentage of cells with a fluorescence signal greater than the maximum fluorescence of untreated cells, “mean %” or “Pos cells (%)”, was used to identify positive fluorescent cells for determining transduction efficiency. The mean fluorescence intensity (Mean-FITC/APC) is the average of all fluorescence intensities of each cell with a fluorescent signal after delivery of fluorescent cargos. “Delivery scores” were calculated to provide a further indication of the total amount of cargo that was delivered per cell amongst all cargo-positive cells and was calculated by multiplying the mean fluorescence intensity (of at least duplicate samples) measured for the viable cargo-positive cells, by the mean percentage of viable cargo-positive cells, divided by 100,000. Finally, a “Delivery-Viability Score” was sometimes calculated for each peptide as the Mean viability multiplied by the Delivery Score multiplied by 10, enabling a ranking of the shuttle agents in terms of both their transduction activity and toxicity. Furthermore, the events detected by the cytometer and which correspond to the cells (size and granularity) were analyzed. Cellular toxicity (% cell viability) is obtained by comparing the size (FSC) and granularity (SSC) of each cell delivery condition to untreated cells. The delivery conditions of the cells also included the “cargo only” as a control.

cells = settings: following the cells being exposed to the shuttle agent and cargo; cited from earlier work
in vitro = settings: human, cerebrospinal or other body fluid
Description: To evaluate the effect of sputum from CF patients on the shuttle agent conjugates, degradation of FSD10 or FSD10-mal-PEG20K was first assessed to determine whether addition of a PEG on the shuttle was protective from the sputum.

**Q.** For “FSD10scr: negative control peptide, same amino acids of FSD10 rearranged in a scrambled order (KWKLARAFARAIKKLGGSGGGSYARALRRQARTG; FSD10 Scarmble)”, which “nuclear cargo transduction of independent DRI-NLS^647 by microscopy” value (HeLa cells [1]) is on record?
**A.** The value was “no significant transduction”.

**Q.** What about the “nuclear cargo transduction of GFP-NLS by microscopy” value (HeLa cells [2]) of the same molecule?
**A.** The value was “no significant transduction”.

**Q.** For `N=C(N)NCCC[C@H](NC(=O)[C@H](CCCNC(=N)N)NC(=O)[C@H](CCCNC(=N)N)NC(=O)[C@H](CCC(N)=O)NC(=O)[C@H](CCCNC(=N)N)NC(=O)[C@H](CCCNC(=N)N)NC(=O)[C@H](CCCCN)NC(=O)[C@H](CCCCN)NC(=O)[C@H](CCCNC(=N)N)NC(=O)CNC(=O)[C@@H](N)Cc1ccc(O)cc1)C(=O)O` [TAT], which viability at 5 min ([3]; concentrations of 10 to 220 μM (data not shown), read-out: viabilities) is on record?
**A.** The viability at 5 min was > 80%.

**Q.** Which “time to deliver GFP-NLS cargo to the cytosol” value (cells) does the source give for “His-CM18-PTD4: first generation shuttle agent (HHHHHHKWKLFKKIGAVLKVLTTGYARAAARQARA; His-CM18-PTD4)” here?
**A.** The value was 45 s.

**Q.** For “KWKLARAFARAIKKLGGSGGGSYARALRRQARTG [FSD10]”, which viability at 5 min, 20 µM ([3]; shuttle agent at 20 μM, 10 μM GFP-NLS) is on record?
**A.** The viability at 5 min, 20 µM was 55%.

**Q.** What about the viability at 5 min, 40 µM ([3]; shuttle agent at 40 μM, 10 μM GFP-NLS) of the same molecule?
**A.** The viability at 5 min, 40 µM was 6%.

**Q.** And the viability at 5 min ([3]; shuttle agent, 10 μM GFP-NLS, read-out: cell viabilities)?
**A.** Its viability at 5 min is < 10%.

**Q.** And the metabolised at 5 min (in vitro)?
**A.** The metabolised at 5 min was 40%.
